From patent US20070281992A1, “COMBINATION OF GYRASE B INHIBITORS AND PROTEIN SYNTHESIS INHIBITORS AND USES THEREOF” (priority 2006, published 2007)
Where two headings read alike, the source gives them in different places.

Experiments:
[1] = system: Vancomycin-intermediate Staphylococcus epidermidis Isolates; test: MIC assay (NCCLS broth dilution), VISE isolates; assay type: cell-based; conditions: for MIC: read-out: Minimal Inhibitory Concentration
Protocol: (§1) Antibiotics: novobiocin, tetracycline, minocycline, oxacillin, and vancomycin were all purchased from Sigma-Aldrich. Linezolid was obtained from Pfizer, Inc. Novobiocin/tetracycline and novobiocin/minocycline were tested in a 2.5:1 ratio to mimic the serum levels. (Vavra, J. J., 1967, Development of resistance to novobiocin, tetracycline, and novobiocin-tetracycline combinations in Staphylococcus aureus populations, J. Bacteriol 93(3):801). Compounds were tested across a concentration range consisting of 11 two-fold serial dilutions of test agent.
(§2) Stock solutions were prepared in sterile deionized water; novobiocin stock concentration was 1600 μg/mL and all other drugs stock solutions were prepared at 640 μg/mL. The stock solutions were allowed to sit at room temperature for one hour to auto-sterilize prior to use in the test. All compounds were in solution in water. The control agent was vancomycin hydrochloride, Sigma Chemical Lot # 015K0825.
(§3) The test organisms for the assay were 52 MSSA, 52 MRSA, 8 VISA, 7 VISE, and 3 LRSA isolates. Quality control strains included Staphylococcus aureus 0100 (ATCC 29213) and Enterococcus faecalis (ATCC 29212).
(§4) The MIC assay was performed according to published NCCLS guidelines. (National Committee for Clinical Laboratory Standards, Methods for Dilution Antimicrobial Susceptibility Tests for Bacteria that Grow Aerobically; Approved Standard-Sixth Edition, NCCLS Document M7-A6 [ISBN 1-56238-486-4], NCCLS, 940 West Valley Road, Suite 1400, Wayne, Pa. 19087-1898 USA, 2003). The test medium was Mueller Hinton II Broth for all organisms.

[2] = system: Methicillin-Susceptible Staphylococcus aureus Isolates; test: MIC assay (NCCLS broth dilution), MSSA clinical isolates; assay type: cell-based; conditions: for MIC: read-out: Minimal Inhibitory Concentration
Protocol: as §1, §2, §3, §4

[3] = Staphylococcus aureus, 52 MSSA isolates, combinations at 2.5:1, given as NB/partner

MIC Range ([1]; 4 VISE isolates, combinations at 2.5:1): 1 to 2 µg/mL | MIC ([1]; Staphylococcus epidermidis, VISE isolate 2020, 09MAR06): 2 µg/mL | MIC ([1]; Staphylococcus epidermidis, VISE isolate 2021, 09MAR06): 1 µg/mL | MIC ([1]; Staphylococcus epidermidis, VISE isolate 2022, 03MAR06): 2 µg/mL | MIC ([1]; Staphylococcus epidermidis, VISE isolate 2023, 03MAR06): 2 µg/mL | MIC50 ([1]; Staphylococcus epidermidis, 4 VISE isolates, combinations at 2.5:1): 2 µg/mL | MIC Range ([2]; 52 MSSA isolates, Mueller Hinton II Broth, combinations at 2.5:1, given as NB/partner): 1 to 4 µg/mL | MIC ([2]; Staphylococcus aureus, MSSA isolate 133, 03MAR06): 2 µg/mL | MIC ([2]; Staphylococcus aureus, MSSA isolate 134, 03MAR06): 2 µg/mL | MIC ([2]; Staphylococcus aureus, MSSA isolate 135, 03MAR06): 4 µg/mL | MIC ([2]; Staphylococcus aureus, MSSA isolate 753, 22FEB06): 2 µg/mL | MIC ([2]; Staphylococcus aureus, MSSA isolate 754, 22FEB06): 4 µg/mL | MIC ([2]; Staphylococcus aureus, MSSA isolate 754, 24FEB06): 4 µg/mL | MIC ([2]; Staphylococcus aureus, MSSA isolate 755, 22FEB06): 2 µg/mL | MIC ([2]; Staphylococcus aureus, MSSA isolate 756, 03MAR06): 2 µg/mL | MIC ([2]; Staphylococcus aureus, MSSA isolate 779, 22FEB06): 2 µg/mL | MIC ([2]; Staphylococcus aureus, MSSA isolate 780, 03MAR06): 4 µg/mL | MIC ([2]; Staphylococcus aureus, MSSA isolate 781, 03MAR06): 2 µg/mL | MIC ([2]; Staphylococcus aureus, MSSA isolate 782, 22FEB06): 2 µg/mL | MIC ([2]; Staphylococcus aureus, MSSA isolate 783, 22FEB06): 2 µg/mL | MIC ([2]; Staphylococcus aureus, MSSA isolate 784, 22FEB06): 2 µg/mL | MIC ([2]; Staphylococcus aureus, MSSA isolate 785, 22FEB06): 2 µg/mL | MIC ([2]; Staphylococcus aureus, MSSA isolate 786, 22FEB06): 4 µg/mL | MIC ([2]; Staphylococcus aureus, MSSA isolate 787, 22FEB06): 2 µg/mL | MIC ([2]; Staphylococcus aureus, MSSA isolate 788, 22FEB06): 2 µg/mL | MIC ([2]; Staphylococcus aureus, MSSA isolate 789, 24FEB06): 4 µg/mL | MIC ([2]; Staphylococcus aureus, MSSA isolate 790, 24FEB06): 4 µg/mL | MIC ([2]; Staphylococcus aureus, MSSA isolate 791, 24FEB06): 2 µg/mL | MIC ([2]; Staphylococcus aureus, MSSA isolate 792, 03MAR06): 2 µg/mL | MIC ([2]; Staphylococcus aureus, MSSA isolate 793, 24FEB06): 4 µg/mL | MIC ([2]; Staphylococcus aureus, MSSA isolate 794, 24FEB06): 4 µg/mL | MIC ([2]; Staphylococcus aureus, MSSA isolate 994, 22FEB06): 2 µg/mL | MIC ([2]; Staphylococcus aureus, MSSA isolate 995, 03MAR06): 2 µg/mL | MIC ([2]; Staphylococcus aureus, MSSA isolate 996, 22FEB06): 2 µg/mL | MIC ([2]; Staphylococcus aureus, MSSA isolate 997, 22FEB06): 2 µg/mL | MIC ([2]; Staphylococcus aureus, MSSA isolate 998, 03MAR06): 2 µg/mL | MIC ([2]; Staphylococcus aureus, MSSA isolate 999, 22FEB06): 2 µg/mL | MIC ([2]; Staphylococcus aureus, MSSA isolate 1000, 24FEB06): 2 µg/mL | MIC ([2]; Staphylococcus aureus, MSSA isolate 1001, 24FEB06): 2 µg/mL | MIC ([2]; Staphylococcus aureus, MSSA isolate 1002, 24FEB06): 2 µg/mL | MIC ([2]; Staphylococcus aureus, MSSA isolate 1003, 03MAR06): 2 µg/mL | MIC ([2]; Staphylococcus aureus, MSSA isolate 1005, 24FEB06): 2 µg/mL | MIC ([2]; Staphylococcus aureus, MSSA isolate 1006, 24FEB06): 2 µg/mL | MIC ([2]; Staphylococcus aureus, MSSA isolate 1007, 24FEB06): 4 µg/mL | MIC ([2]; Staphylococcus aureus, MSSA isolate 1008, 24FEB06): 2 µg/mL | MIC ([2]; Staphylococcus aureus, MSSA isolate 1009, 24FEB06): 4 µg/mL | MIC ([2]; Staphylococcus aureus, MSSA isolate 1131, 24FEB06): 2 µg/mL | MIC ([2]; Staphylococcus aureus, MSSA isolate 1132, 03MAR06): 2 µg/mL | MIC ([2]; Staphylococcus aureus, MSSA isolate 1133, 24FEB06): 2 µg/mL | MIC ([2]; Staphylococcus aureus, MSSA isolate 1134, 24FEB06): 2 µg/mL | MIC ([2]; Staphylococcus aureus, MSSA isolate 1654, 03MAR06): 2 µg/mL | MIC ([2]; Staphylococcus aureus, MSSA isolate 1656, 03MAR06): 2 µg/mL | MIC ([2]; Staphylococcus aureus, MSSA isolate 1662, 03MAR06): 2 µg/mL | MIC ([2]; Staphylococcus aureus, MSSA isolate 1663, 03MAR06): 4 µg/mL | MIC ([2]; Staphylococcus aureus, MSSA isolate 1666, 03MAR06): 4 µg/mL | MIC ([2]; Staphylococcus aureus, MSSA isolate 1667, 03MAR06): 4 µg/mL | MIC ([2]; Staphylococcus aureus, MSSA isolate 1668, 03MAR06): 4 µg/mL | MIC ([2]; Staphylococcus aureus, MSSA isolate 1671, 03MAR06): 2 µg/mL | MIC ([2]; Staphylococcus aureus, MSSA isolate 1728, 03MAR06): 1 µg/mL | MIC ([2]; Staphylococcus aureus, MSSA isolate 1728, retest 09MAR06): 1 µg/mL | MIC50 [2, 3]: 2 µg/mL | MIC90 [2, 3]: 4 µg/mL
SMILES: CC(=O)NC[C@H]1CN(c2ccc(N3CCOCC3)c(F)c2)C(=O)O1 [LZD, linezolid]
